How the values were obtained:
CoxD [1] = molecular target: T1, CoxD (Afipia carboxidovorans, UniProt Q51326); experiment: inhibition of ATP hydrolysis, ADP release; format: biochemical; conditions: 100 mM Tris/acetate pH 8.0, 1 mM Mg-acetate, 25 °C; refolded enzyme; 1 mM ATP; competes with ATP; slowly hydrolysable analogue
T1 construct: mainly hexamer, also dimer and tetramer (homo-oligomer)
T1 sequence (Q51326 1-295): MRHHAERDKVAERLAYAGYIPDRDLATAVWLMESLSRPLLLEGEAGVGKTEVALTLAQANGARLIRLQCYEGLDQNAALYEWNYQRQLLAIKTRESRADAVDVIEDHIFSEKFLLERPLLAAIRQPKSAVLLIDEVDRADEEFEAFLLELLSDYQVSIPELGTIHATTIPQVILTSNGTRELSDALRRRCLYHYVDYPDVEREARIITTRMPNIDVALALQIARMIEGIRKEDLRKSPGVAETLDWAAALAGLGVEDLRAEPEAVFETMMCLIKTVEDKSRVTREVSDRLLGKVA

CoxD [2] = molecular target: T1, CoxD; experiment: GTP hydrolysis, inorganic phosphate release; format: biochemical; conditions: 100 mM Tris/acetate pH 8.0, 1 mM Na2GTP, 1 mM Mg-acetate, 25 °C; weak side activity
purified protein = substrate: Nc1ncnc2c1ncn2[C@@H]1O[C@H](COP(=O)(O)OP(=O)(O)OP(=O)(O)O)[C@@H](O)[C@H]1O; experiment: purified protein; conditions: 100 mM Tris/acetate pH 8.0, 1 mM Mg-acetate, 25 °C, refolded enzyme

Nc1ncnc2c1ncn2[C@@H]1O[C@H](COP(=O)(O)OP(=O)(O)OP(O)(O)=S)[C@@H](O)[C@H]1O [ATP-γ-S]
inhibition of ATP hydrolysis (qualitative) (CoxD [1]): It very effectively competed with ATP for CoxD

Nc1nc2c(ncn2[C@@H]2O[C@H](COP(=O)(O)OP(=O)(O)OP(=O)(O)O)[C@@H](O)[C@H]2O)c(=O)[nH]1 [GTP]
GTP hydrolysis, inorganic phosphate release (CoxD [2]): formed from GTP

B1: CoxD (Afipia carboxidovorans OM5) (protein)
chain: T1 sequence (Q51326 1-295)
Km (purified protein): 690 ± 140 µM
